Data published in ChEMBL document CHEMBL2074082, “Characterization of the monocarboxylate transporter 1 expressed in Xenopus laevis oocytes by changes in cytosolic pH” (Biochem J, 1998).

How the values were obtained:
[1] = molecular target: T1, Monocarboxylate transporter 1 (Rattus norvegicus) (UniProt P53987); experiment: TP_TRANSPORTER: change in intracellular pH(pHi)value in Xenopus laevis oocytes; format: functional, cell-based; conditions: Oocyte
T1 sequence (whole entry): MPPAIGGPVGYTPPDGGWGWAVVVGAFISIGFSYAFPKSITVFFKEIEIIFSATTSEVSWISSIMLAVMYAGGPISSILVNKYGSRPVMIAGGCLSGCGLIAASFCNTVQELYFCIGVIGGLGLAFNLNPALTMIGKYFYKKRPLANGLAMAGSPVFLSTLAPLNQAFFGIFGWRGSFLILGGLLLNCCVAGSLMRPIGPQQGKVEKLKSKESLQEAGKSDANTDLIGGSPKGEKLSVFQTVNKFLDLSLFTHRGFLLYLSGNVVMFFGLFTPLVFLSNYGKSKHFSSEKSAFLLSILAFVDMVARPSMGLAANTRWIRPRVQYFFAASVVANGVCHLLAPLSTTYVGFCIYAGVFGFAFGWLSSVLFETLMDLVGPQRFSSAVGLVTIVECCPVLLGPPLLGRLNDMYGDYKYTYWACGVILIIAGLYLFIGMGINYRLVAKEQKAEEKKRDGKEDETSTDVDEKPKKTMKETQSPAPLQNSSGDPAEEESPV

[2] = molecular target: T1, Monocarboxylate transporter 1 (Rattus norvegicus); experiment: TP_TRANSPORTER: inhibition of lactate uptake(pHi charge) in Xenopus laevis oocytes; format: functional, cell-based; conditions: Oocyte

Row | Structure (SMILES) | Activity [1] | Activity [2]
1 | CC(=O)CC(=O)O | substrate [+] | 
2 | CC(O)CC(=O)O (racemic) | substrate [+] | 
3 | N#C/C(=C\c1ccc(O)cc1)C(=O)O |  | inhibitor [+]
